Consider 5 molecules from ChEMBL document CHEMBL1138545, “Synthesis and antimicrobial activities of some new triazolothiadiazoles bearing 4-methylthiobenzyl moiety” (2009).

Type in all cases: functional
For one assay, the system named is Aspergillus fumigatus. Kind of assay: Antifungal activity against Aspergillus fumigatus NICM 902 after 3 to days by serial plate dilution method. The note with it: for MIC: Aspergillus fumigatus, NICM 902.
The subject of the next assay is Staphylococcus aureus. Kind of assay: Antibacterial activity against Staphylococcus aureus ATTC […] after 24 hrs by the disk diffusion method. The following applies: for MIC: Staphylococcus aureus, 24 h. A general note: In agar diffusion tests the substance spreads into inoculated agar from a disc or well.
Another assay concerns Candida albicans. Kind of assay: Antifungal activity against Candida albicans NICM 300 after 3 to days by serial plate dilution method. The note with it: for MIC: Candida albicans, NICM 300.
The test system of another assay is Klebsiella pneumoniae. Kind of assay: Antibacterial activity against Klebsiella pneumoniae after 24 hrs by the disk diffusion method. The note with it: for MIC: Klebsiella pneumoniae, 24 h.
The subject of another assay is Escherichia coli. Kind of assay: Antibacterial activity against Escherichia coli ATTC 25922 after 24 hrs by the disk diffusion method. The note with it: for MIC: Escherichia coli, ATTC 25922, 24 h.
For the next assay, the system named is Pseudomonas aeruginosa. Kind of assay: Antibacterial activity against Pseudomonas aeruginosa ATTC 27853 after 24 hrs by the disk diffusion method. The following applies: for MIC: Pseudomonas aeruginosa, ATTC 27853, 24 h.
For a further assay, the system named is Aspergillus flavus. Kind of assay: Antifungal activity against Aspergillus flavus NICM 524 after 3 to days by serial plate dilution method. The following applies: for MIC: Aspergillus flavus, NICM 524.
In assay [1] the test system is Trichophyton mentagrophytes. Kind of assay: Antifungal activity against Trichophyton mentagrophytes after 3 to days by serial plate dilution method. The note with it: for MIC: Trichophyton mentagrophytes.

The MIC is the smallest concentration in the dilution series that meets the test's criterion for growth inhibition.

Values after ≈ are worked out from the molar mass of the structure shown.

In the case of `CSc1ccc(Cc2nn3c(Cc4ccc(SC)cc4)nnc3s2)cc1`, the “diameter of the inhibition zone (DIZ)” value is listed as 22 mm with Aspergillus fumigatus, 19 mm with Candida albicans, 17 mm in the assay with Aspergillus flavus and 20 mm in assay [1]. Besides, the MIC against Aspergillus fumigatus is 6 µg/mL (≈ 15.1 µM); in the assay on Staphylococcus aureus it was 12.5 µg/mL (≈ 31.4 µM); in the assay on Candida albicans it was 6 µg/mL (≈ 15.1 µM); in the assay on Klebsiella pneumoniae, 25 µg/mL (≈ 62.7 µM); against Escherichia coli, 12.5 µg/mL (≈ 31.4 µM); in the assay on Pseudomonas aeruginosa, 6 µg/mL (≈ 15.1 µM). Further, the minimal inhibitory concentration (MIC) in the assay with Aspergillus flavus is 25 µg/mL (≈ 62.7 µM); in assay [1], 6 µg/mL (≈ 15.1 µM). Besides, the “inhibition zone (IZ)” value in the assay on Staphylococcus aureus turned out to be 18 mm; in the assay with Klebsiella pneumoniae, 13 mm; with Escherichia coli, 16 mm; in the assay on Pseudomonas aeruginosa, 18 mm.

Turning to `CSc1ccc(Cc2nnc3sc(-c4ccc(Cl)c(Cl)c4Cl)nn23)cc1`, the “diameter of the inhibition zone (DIZ)” value with Aspergillus fumigatus is 13 mm; with Candida albicans, 10 mm; in the assay on Aspergillus flavus, 15 mm; in assay [1], 17 mm. For the same molecule, the MIC in the assay with Aspergillus fumigatus worked out at 25 µg/mL (≈ 56.6 µM); against Staphylococcus aureus, 12.5 µg/mL (≈ 28.3 µM); against Candida albicans, 25 µg/mL (≈ 56.6 µM); in the assay with Klebsiella pneumoniae it was 6 µg/mL (≈ 13.6 µM); with Escherichia coli, 12.5 µg/mL (≈ 28.3 µM); in the assay on Pseudomonas aeruginosa, 12.5 µg/mL (≈ 28.3 µM). Besides, the MIC (with Aspergillus flavus; in assay [1]) was 25 µg/mL (≈ 56.6 µM) throughout. For the same molecule, the “inhibition zone (IZ)” value in the assay on Staphylococcus aureus is given as 18 mm; with Klebsiella pneumoniae, 24 mm; with Escherichia coli, 19 mm; with Pseudomonas aeruginosa, 17 mm.

For the molecule `CSc1ccc(Cc2nnc3sc(Cc4ccccc4)nn23)cc1`, the “diameter of the inhibition zone (DIZ)” value was found to be 13 mm in the assay with Aspergillus fumigatus, 17 mm with Candida albicans, 10 mm in the assay with Aspergillus flavus and 12 mm in assay [1]. For the same molecule, the MIC was determined as 25 µg/mL (≈ 70.9 µM) against Aspergillus fumigatus; 25 µg/mL (≈ 70.9 µM) in the assay on Staphylococcus aureus; 6 µg/mL (≈ 17 µM) against Candida albicans; 25 µg/mL (≈ 70.9 µM) in the assay on Klebsiella pneumoniae; 25 µg/mL (≈ 70.9 µM) against Escherichia coli; 25 µg/mL (≈ 70.9 µM) in the assay with Pseudomonas aeruginosa. Moreover, the minimum inhibitory concentration (MIC) (with Aspergillus flavus; in assay [1]) was 25 µg/mL (≈ 70.9 µM) in each case. Besides, the “inhibition zone (IZ)” value is 11 mm with Staphylococcus aureus, 14 mm in the assay on Klebsiella pneumoniae, 11 mm in the assay with Escherichia coli and 15 mm in the assay on Pseudomonas aeruginosa.

For `CSc1ccc(Cc2nnc3sc(-c4cc(F)c(Cl)cc4Cl)nn23)cc1`, the “diameter of the inhibition zone (DIZ)” value amounted to 21 mm in the assay on Aspergillus fumigatus, 20 mm in the assay with Candida albicans, 18 mm with Aspergillus flavus and 19 mm in assay [1]. Further, the MIC against Aspergillus fumigatus stood at 6 µg/mL (≈ 14.1 µM); against Staphylococcus aureus, 12.5 µg/mL (≈ 29.4 µM); with Candida albicans, 6 µg/mL (≈ 14.1 µM); against Klebsiella pneumoniae, 6 µg/mL (≈ 14.1 µM); against Escherichia coli, 6 µg/mL (≈ 14.1 µM); in the assay with Pseudomonas aeruginosa, 12.5 µg/mL (≈ 29.4 µM). The MIC (in the assay on Aspergillus flavus; in assay [1]) was 6 µg/mL (≈ 14.1 µM) throughout. Moreover, the “inhibition zone (IZ)” value in the assay with Staphylococcus aureus was determined as 19 mm; with Klebsiella pneumoniae, 23 mm; in the assay with Escherichia coli, 20 mm; in the assay on Pseudomonas aeruginosa, 17 mm.

As to `Cc1cc(C2CCCCC2)n(O)c(=O)c1.NCCO` [CICLOPIROX OLAMINE], the “diameter of the inhibition zone (DIZ)” value with Aspergillus fumigatus turned out to be 22 mm; in the assay with Candida albicans it was 20 mm; in the assay on Aspergillus flavus it was 18 mm; in assay [1], 20 mm. The MIC in the assay with Aspergillus fumigatus is 6 µg/mL; in the assay on Candida albicans it was 6 µg/mL; with Aspergillus flavus it was 12.5 µg/mL; in assay [1], 6 µg/mL.
